Where “and” joins values, the source holds several entries; their conditions need not be identical. Equal entries are not always repeated.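 48-hour exposure; five concentrations; linearly interpolated endpoints. GI50: concentration for 50% inhibition of growth. TGI marks complete inhibition of growth.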
Legend:
Assay in all cases: growth of human tumour cells (NCI), 48 h
T-47D breast = system: T-47D breast
SK-MEL-5 melanoma = system: SK-MEL-5 melanoma
HT29 colon = system: HT29 colon
IGROV1 ovarian = system: IGROV1 ovarian
SK-OV-3 ovarian = system: SK-OV-3 ovarian
COLO 205 colon = system: COLO 205 colon
A498 renal = system: A498 renal
SN12C renal = system: SN12C renal

Compound | GI50 (T-47D breast) | TGI (T-47D breast) | GI50 (SK-MEL-5 melanoma) | TGI (SK-MEL-5 melanoma) | GI50 (HT29 colon) | TGI (HT29 colon) | GI50 (IGROV1 ovarian) | TGI (IGROV1 ovarian) | GI50 (SK-OV-3 ovarian) | TGI (SK-OV-3 ovarian) | GI50 (COLO 205 colon) | TGI (COLO 205 colon) | GI50 (A498 renal) | TGI (A498 renal) | GI50 (SN12C renal) | TGI (SN12C renal)
Cc1ccc(-c2csc(/N=C3\C(=O)Nc4ccccc43)n2)cc1 | 1.36 µM | 4.46 µM | 1.63 µM | 3.02 µM | 1.6 µM | 4.83 µM | 1.53 µM | 4.55 µM | 1.61 µM | 3.55 µM | 1.31 µM | 3.23 µM | 1.71 µM | 3.53 µM |  | 
C=C1C(=O)O[C@H]2C[C@@H]1CC/C(C)=C/CC/C(C)=C/CC[C@H]2C | 25 µM | 51.6 µM | 17.3 µM | 32.2 µM | 28.3 µM | > 100 µM | 18.8 µM | 40 µM | 19.2 µM | 38.9 µM | 30.1 µM | > 83.7 µM | 20.6 µM | 36.6 µM | 20.6 µM | 39 µM
CN[C@H]1C=C[C@@H]2/C=C(C)/C=C/[C@@H](C)[C@H]([C@H](C)[C@H](O)[C@@H](C)NC(C)=O)OC(=O)/C=C/C=C(C)\C=C\[C@]2(C)C1 | < 0.001 µM and 0.0049 µM | > 49 µM | 0.0049 µM | 0.552 µM | < 0.001 µM and 0.0049 µM | > 49 µM | 0.0049 µM | > 49 µM | < 0.001 µM |  | 0.00815 µM | 8.64 µM | 0.0113 µM | 2.67 µM | 0.00633 µM | > 49 µM
Cn1cc(C2=C(c3cn(CCCCN)c4ccccc34)C(=O)NC2=O)c2ccccc21 | > 25 µM | > 25 µM | > 25 µM | > 25 µM | > 25 µM | > 25 µM | > 25 µM | > 25 µM | > 25 µM | > 25 µM | > 25 µM | > 25 µM | > 25 µM | > 25 µM | > 25 µM | > 25 µM
Cc1cnc(NC(=O)Nc2cc(Br)c(C)cc2OC[C@@H]2CNCCO2)cn1 | 2.88 µM and 7.86 µM | > 10 µM and 22.3 µM | 1.43 µM and 1.09 µM | 4.22 µM and 2.92 µM | 1.95 µM and 2.59 µM | > 10 µM and 10.1 µM | 0.979 µM and 1.36 µM | > 10 µM and 17 µM | 0.916 µM and 0.474 µM | > 10 µM and 12.3 µM | 2.58 µM and 2.72 µM | 9.03 µM and 8.55 µM | 0.33 µM and 0.0894 µM |  | 3.8 µM and 2.5 µM | > 10 µM and 12.1 µM
CCc1cccc(C)c1NC(=O)c1sc2nc3c(cc2c1N)CCCCC3 | 4.65 µM | > 100 µM | 2.97 µM | 13.8 µM | 3.26 µM | 24.7 µM | 5.13 µM | > 100 µM | 5.24 µM | > 100 µM | 2.98 µM | 15.2 µM | 2.2 µM | 23.3 µM | 6 µM | > 100 µM
COc1ccc(-c2cc(=O)c3ccc(C)nc3[nH]2)cc1 |  | > 100 µM | 48 µM | > 100 µM |  | > 100 µM |  | > 100 µM |  | > 100 µM |  | > 100 µM |  | > 100 µM |  | > 100 µM
C=C1C(O)C2C(=C(CCc3ccccc3)C13CC3)C(=O)C(C)(CO)C2O (centres undefined) |  |  | > 100 µM | > 100 µM | > 100 µM | > 100 µM | > 100 µM | > 100 µM |  |  | > 100 µM | > 100 µM |  |  | > 100 µM | > 100 µM
CC(=O)OCC1OC(n2c(-c3ccc(Cl)cc3)ccc(C#N)c2=S)C(OC(C)=O)C(OC(C)=O)C1OC(C)=O (centres undefined) |  | > 100 µM | > 66.1 µM and 32.2 µM | > 100 µM |  | > 100 µM | 44.3 µM and > 100 µM | > 100 µM | 16.4 µM and 47.9 µM | 44.9 µM and > 100 µM | > 100 µM and 49.5 µM | > 100 µM | 24.9 µM and 73.8 µM | 56.1 µM and > 100 µM |  | > 100 µM
CC(C)=CCc1c(OC(=O)c2c(C)cc(O)cc2O)cc(CO)c(CO)c1O |  | 23.8 µM |  | 29.1 µM |  | 42.6 µM |  | 62.2 µM |  | 30.9 µM |  | 33.8 µM |  | 35.1 µM |  | 34.9 µM
CC(C)CCC(=O)c1ccoc1 |  | > 100 µM |  | > 100 µM |  | > 100 µM |  | > 100 µM |  | > 100 µM |  | > 100 µM |  |  |  | > 100 µM
CN(C)CCCNC(=O)c1cc(NC(=O)c2cc(NC(=O)CCc3c[nH]c4ccccc34)cn2C)cn1C | > 100 µM | > 100 µM | > 100 µM | > 100 µM | > 100 µM | > 100 µM | > 100 µM | > 100 µM | > 100 µM | > 100 µM | > 100 µM | > 100 µM | > 100 µM | > 100 µM | > 100 µM | > 100 µM
O=C1c2ccccc2-c2c1c1c(=O)[nH]c3ccccc3c1n2Cc1ccccc1 | 34.3 µM | > 100 µM | > 100 µM | > 100 µM | > 100 µM | > 100 µM | 29.9 µM | 97.3 µM | 20.7 µM | 45.8 µM | > 100 µM | > 100 µM | 21.1 µM | 50.6 µM | 35.9 µM | > 100 µM
Cc1sc2nc(-c3ccncc3)c(/C=N/N=C(N)N)n2c1C | 30.7 µM | > 100 µM | 38.3 µM | > 100 µM | 40 µM | > 100 µM |  |  | 62.2 µM | > 100 µM |  |  | 25.8 µM | > 100 µM | 16.9 µM | 51.6 µM
COc1cc(OC)cc(N(CCNC(C)C)c2ccc3ncc(-c4cnn(C)c4)nc3c2)c1 | 12.7 µM | 30.3 µM |  |  | 3.72 µM | 15.7 µM | 3.02 µM | 11.1 µM | 1.99 µM | 6 µM | 4.64 µM | 18.5 µM |  | 3.5 µM | 3.96 µM | 15.9 µM
COC(=O)[C@@H](C)C[C@H](Cc1ccccc1)NC(=O)c1csc(CC[C@H](C(C)C)N(C)C(=O)[C@@H](NC(=O)[C@H]2CCCCN2C)C(C)C)n1 |  |  | 0.0981 µM | 0.747 µM | 0.211 µM | 6.01 µM | 0.291 µM | > 33.3 µM | 0.451 µM | > 33.3 µM | 0.19 µM | 1.53 µM | 0.19 µM | 1.56 µM | 0.435 µM | > 33.3 µM
COc1cccc(-c2nc3sccn3c2-c2ccnc(NCCCNS(=O)(=O)c3cccc(F)c3)c2)c1 | 1.24 µM | 4.93 µM | 1.56 µM | 3.63 µM | 3.01 µM | 23.9 µM | 2.39 µM | 9.77 µM | 4.86 µM | > 100 µM | 2.22 µM | 11.1 µM |  |  | 2.94 µM | > 100 µM
COc1ccc(-c2cn[nH]c2-c2cc(OC)c3c(c2)OCO3)cc1 |  |  | 0.277 µM | 8.7 µM | 0.102 µM | 12.1 µM | 0.984 µM | 26.7 µM | 0.386 µM | 5.45 µM | 0.164 µM | 0.768 µM | 0.0632 µM | 1.13 µM | 1.1 µM | 27.7 µM
COc1cc(C#Cc2ccc(=O)oc2C#Cc2ccccc2)cc(OC)c1OC | 2.27 µM | 6.22 µM | 2.02 µM | 4.77 µM | 2.44 µM | 6.6 µM | 2.18 µM | 5.7 µM | 15.2 µM | > 74.5 µM |  |  | 19.1 µM | 34.5 µM | 1.75 µM | 3.5 µM
Clc1nc(Cl)c2ncn(Cc3cccc(Cn4cnc5c(Cl)nc(Cl)nc54)c3)c2n1 | 3.01 µM | 8.43 µM | 2.47 µM | 5.87 µM | 4.42 µM | > 100 µM | 7.33 µM | 20.2 µM |  |  | 3.37 µM | 11.3 µM | 4.59 µM | 17.2 µM | 4.73 µM | 18.3 µM
Fc1ccc2[nH]cc(-c3nonc3-c3c[nH]c4ccc(Br)cc34)c2c1 |  |  | 1.88 µM | 4.25 µM | 2.01 µM | 4.03 µM | 3.41 µM | 18.3 µM | 4.34 µM | 22.4 µM |  |  | 2.7 µM | 6.38 µM | 3.13 µM | 12.5 µM
COc1cc(-c2cc3ncccc3c3nc(N)c4cccnc4c23)cc(OC)c1OC | 0.824 µM | 32 µM | 0.296 µM | 1.99 µM | 0.0762 µM | 15.5 µM | 1.56 µM | > 100 µM | 0.538 µM | 72.5 µM | 0.246 µM | 18.9 µM |  |  | 1.01 µM | > 100 µM
Nc1ccccc1C(=O)CC1OC(=O)c2ccccc21 (centres undefined) |  | > 100 µM |  |  |  | > 100 µM |  | > 100 µM |  | > 100 µM |  |  |  | > 100 µM |  | > 100 µM
Cc1cc(S(=O)(=O)Nc2nc3cscc3c(=O)n2Cc2ccccc2)c(S)cc1Cl | 4.53 µM | 90.8 µM | 21.4 µM | > 100 µM | 47.9 µM | > 100 µM | 64.9 µM | > 100 µM |  |  | > 100 µM | > 100 µM | 46.6 µM | > 100 µM | 16.6 µM | 54.5 µM
C=C(c1ccc2nc(NC(=O)OC)[nH]c2c1)c1cccs1 |  |  |  | > 20.7 µM |  | > 100 µM |  | > 100 µM |  | > 45.1 µM |  | > 100 µM |  | 2.71 µM |  | > 100 µM
